Measurements: patent publication US10189809B2, “SGC stimulators” (Ironwood Pharmaceuticals, Inc., priority 2010, dated 2019)
Where two headings read alike, the source gives them in different places.

Experiments:
[1] = biological target: T1, soluble guanylate cyclase (sGC) (Homo sapiens (Human), UniProt Q02108+Q02153); test: sGC-HEK-cGMP assay run in the absence of SNP (HEK WC assay); format: cell-based; details: compound at 30 μM, absence of SNP
Protocol: Human embryonic kidney cells (HEK293), endogenously expressing soluble guanylate cyclase (sGC), were used to evaluate the activity of test compounds. Compounds stimulating the sGC receptor should cause an increase in the intracellular concentration of cGMP. HEK 293 cells were seeded in Dulbecco's Modification of Eagle's Medium supplemented with fetal bovine serum (10% final) and L-glutamine (2 mM final) in a 200 μL volume at a density of 1×10^5 cells/well in a poly-D-lysine coated 96 well flat bottom plate and grown overnight at 37° C. Medium was aspirated and cells were washed with 1× Hank's Buffered Saline Salt Solution (200 μL). Cells were then incubated for 15 minutes at 37° C. with 0.5 mM 3-isobutyl-1-methylxanthine (200 μL). Test article was then added to the assay mixture (2 μL) and incubated at 37° C. for 10 minutes. After the 10 minute incubation, the assay mixture was aspirated and 0.1M HCl (200 μL) was added to the cells. The plate was incubated at 4° C. for 30 minutes in the 0.1M HCl to stop the reaction and lysed the cells. The plates were then centrifuged at 1,200 g for 5 minutes at room temperature. Supernatants were collected and transferred to a new flat bottom 96 well plate for analysis. Vehicle controls were carried out using DMSO (1%). A known sGC stimulator, BAY 41-2272, was used as the positive control. Samples were diluted with an equal volume of 1 M Ammonium Acetate (pH 7) to neutralize samples for better chromatography. A 2× cGMP standard curve was prepared in 0.1 M HCl and then diluted with an equal volume of 1 M Ammonium Acetate, with the following final concentrations in nM: 1024, 512, 256, 128, 64, 32, 16, 8, 4, 2, 1. cGMP concentrations were determined from each sample using the LC/MS conditions (Table 2 below) and calculated standard curve. EC50 values were calculated from concentration-response curves generated with GraphPad Prism Software.

[2] = biological target: T1, soluble guanylate cyclase (sGC); test: sGC-HEK-cGMP assay run with SNP incubation (HEK WC assay); format: cell-based; details: for HEK WC Assay (fold increase at 30 μM in the presence of 10 μM SNP): compound at 30 μM; for EC50: in the presence of 10 uM SNP
Outline: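 HEK293 cells with endogenous sGC were pretreated with 0.5 mM IBMX for 15 min at 37 °C, then exposed to test compound plus sodium nitroprusside for 10 min at 37 °C.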

[3] = read-out: HEK WC Assay (% Emax at 1 μM with 10 uM SNP)
[4] = read-out: HEK WC Assay (% Emax at 10 μM with 10 uM SNP)
[5] = read-out: HEK WC Assay (% Emax at 30 μM with 10 uM SNP)

T1 sequence (Q02153 whole entry): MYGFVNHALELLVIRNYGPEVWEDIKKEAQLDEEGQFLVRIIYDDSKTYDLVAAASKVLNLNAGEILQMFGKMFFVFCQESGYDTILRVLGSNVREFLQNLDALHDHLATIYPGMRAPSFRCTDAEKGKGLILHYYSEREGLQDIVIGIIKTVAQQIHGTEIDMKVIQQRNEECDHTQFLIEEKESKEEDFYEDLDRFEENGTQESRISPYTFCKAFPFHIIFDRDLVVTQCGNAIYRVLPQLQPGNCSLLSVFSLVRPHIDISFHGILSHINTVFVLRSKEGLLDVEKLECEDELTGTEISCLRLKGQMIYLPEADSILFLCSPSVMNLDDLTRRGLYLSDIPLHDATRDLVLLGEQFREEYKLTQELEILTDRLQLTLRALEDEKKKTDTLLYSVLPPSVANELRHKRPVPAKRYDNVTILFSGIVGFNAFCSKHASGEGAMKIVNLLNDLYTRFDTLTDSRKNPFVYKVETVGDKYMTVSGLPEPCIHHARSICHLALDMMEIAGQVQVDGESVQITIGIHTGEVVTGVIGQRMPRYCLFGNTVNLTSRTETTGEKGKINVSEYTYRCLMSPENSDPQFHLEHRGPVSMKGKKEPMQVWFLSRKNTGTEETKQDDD
T1 sequence (Q02108 whole entry): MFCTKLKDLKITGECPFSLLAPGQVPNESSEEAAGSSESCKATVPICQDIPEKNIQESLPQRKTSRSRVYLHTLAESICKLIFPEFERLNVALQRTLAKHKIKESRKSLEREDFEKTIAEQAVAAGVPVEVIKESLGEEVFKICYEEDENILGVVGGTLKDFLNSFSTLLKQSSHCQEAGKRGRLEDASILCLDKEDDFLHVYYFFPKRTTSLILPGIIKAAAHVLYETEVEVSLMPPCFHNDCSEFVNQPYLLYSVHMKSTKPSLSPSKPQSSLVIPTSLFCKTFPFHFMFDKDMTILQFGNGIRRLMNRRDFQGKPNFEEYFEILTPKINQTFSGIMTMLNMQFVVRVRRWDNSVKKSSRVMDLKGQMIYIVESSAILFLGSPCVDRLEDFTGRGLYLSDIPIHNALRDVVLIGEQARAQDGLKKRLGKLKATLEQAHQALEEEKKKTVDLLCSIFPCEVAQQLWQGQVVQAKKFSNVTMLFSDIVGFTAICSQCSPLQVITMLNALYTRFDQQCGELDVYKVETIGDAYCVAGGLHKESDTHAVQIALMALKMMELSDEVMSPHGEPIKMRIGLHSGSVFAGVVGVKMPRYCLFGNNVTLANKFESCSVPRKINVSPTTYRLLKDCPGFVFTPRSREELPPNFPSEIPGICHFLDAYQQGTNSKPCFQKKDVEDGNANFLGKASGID

SMILES | HEK WC Assay (fold increase at 30 μM in the absence of SNP) [1] | HEK WC Assay (fold increase at 30 μM in the presence of 10 μM SNP) [2] | Emax [2, 3] | Emax [2, 4] | EC50 [2] | Emax [2, 5]
O=[N+]([O-])c1cnc(-c2cc(-c3ccon3)n(Cc3ccccc3F)n2)nc1O [Compound I-170] | B (B = 1 to <2 fold increase) | B (B = 1 to <2 fold increase) | 0 to 10% | 0 to 10% |  | 
Nc1nc(-c2cc(-c3ccon3)n(Cc3ccccc3F)n2)ncc1NC(=O)c1cccc(F)c1 [Compound I-171] | E (E = 10 to <20 fold increase) | E (E = 10 to <20 fold increase) | 60 to 80% | 100 to 120% | < 20 µM | 80 to 100%
COc1cnc(-c2cc(-c3ccon3)n(Cc3ccccc3F)n2)nc1N [Compound I-173] | C (C = 2 to <5 fold increase) | D (D = 5 to <10 fold increase) | 0 to 10% | 40 to 60% | 100 to 300 µM | 10 to 20%
Nc1nc(-c2cc(-c3ccon3)n(Cc3ccccc3F)n2)ncc1NC(=O)c1ccon1 [Compound I-175] | E (E = 10 to <20 fold increase) | E (E = 10 to <20 fold increase) | 60 to 80% | 80 to 100% | < 20 µM | 100 to 120%
Nc1nc(-c2cc(-c3ccon3)n(Cc3ccccc3F)n2)ncc1NC(=O)c1cccnc1 [Compound I-179] | E (E = 10 to <20 fold increase) | E (E = 10 to <20 fold increase) | 40 to 60% | 60 to 80% | < 20 µM | 80 to 100%
Nc1nc(-c2cc(-c3ccon3)n(Cc3ccccc3F)n2)ncc1NC(=O)c1cocn1 [Compound I-180] | D (D = 5 to <10 fold increase) | E (E = 10 to <20 fold increase) | 40 to 60% | 80 to 100% | < 20 µM | 80 to 100%
Cc1ccc(C(=O)Nc2cnc(-c3cc(-c4ccon4)n(Cc4ccccc4F)n3)nc2N)cc1 [Compound I-181] | E (E = 10 to <20 fold increase) | E (E = 10 to <20 fold increase) | 60 to 80% | 80 to 100% | < 20 µM | > 120%
Nc1nc(-c2cc(-c3ccon3)n(Cc3ccccc3F)n2)ncc1NC(=O)c1ccc(Cl)cc1 [Compound I-182] | E (E = 10 to <20 fold increase) | E (E = 10 to <20 fold increase) | 60 to 80% | 80 to 100% | < 20 µM | 80 to 100%
Cc1cccc(C(=O)Nc2cnc(-c3cc(-c4ccon4)n(Cc4ccccc4F)n3)nc2N)c1 [Compound I-183] | E (E = 10 to <20 fold increase) | D (D = 5 to <10 fold increase) | 60 to 80% | 100 to 120% | < 20 µM | 80 to 100%
Nc1nc(-c2cc(-c3ccon3)n(Cc3ccccc3F)n2)ncc1NC(=O)c1cccc(Cl)c1 [Compound I-187] | D (D = 5 to <10 fold increase) | F (F = 20 to <30 fold increase) | 40 to 60% | 60 to 80% | < 20 µM | 60 to 80%
CC(C)(C)C(=O)Nc1cnc(-c2cc(-c3ncco3)n(Cc3ccccc3F)n2)nc1N [Compound I-191] | C (C = 2 to <5 fold increase) | E (E = 10 to <20 fold increase) | 20 to 40% | 40 to 60% | < 20 µM | 80 to 100%
Oc1nc(-c2cc(-c3ccon3)n(Cc3ccccc3F)n2)ncc1Br [Compound I-192] | D (D = 5 to <10 fold increase) | E (E = 10 to <20 fold increase) | 20 to 40% | 40 to 60% | < 20 µM | 40 to 60%
Nc1nc(-c2cc(-c3ccon3)n(Cc3ccccc3F)n2)ncc1NC(=O)c1cccc(O)n1 [Compound I-193] | E (E = 10 to <20 fold increase) | E (E = 10 to <20 fold increase) | 10 to 20% | 40 to 60% | < 20 µM | 60 to 80%
Fc1ccccc1Cn1nc(-c2ncccn2)cc1-c1ccon1 [Compound I-195] | D (D = 5 to <10 fold increase) | E (E = 10 to <20 fold increase) | 40 to 60% | 60 to 80% | < 20 µM | 60 to 80%
Oc1nc(-c2cc(-c3ncco3)n(Cc3ccccc3F)n2)ncc1F [Compound I-197] | C (C = 2 to <5 fold increase) | E (E = 10 to <20 fold increase) | 10 to 20% | 40 to 60% | 20 to 40 µM | 40 to 60%
Fc1cccc(Cn2nc(-c3ncccn3)cc2-c2ccon2)c1F [Compound I-198] | D (D = 5 to <10 fold increase) | E (E = 10 to <20 fold increase) | 40 to 60% | 40 to 60% | < 20 µM | 60 to 80%
Fc1cccc(F)c1Cn1nc(-c2ncccn2)cc1-c1ccon1 [Compound I-199] | C (C = 2 to <5 fold increase) | E (E = 10 to <20 fold increase) | 10 to 20% | 20 to 40% | 20 to 40 µM | 40 to 60%
Clc1ccccc1Cn1nc(-c2ncccn2)cc1-c1ccon1 [Compound I-200] | B (B = 1 to <2 fold increase) | C (C = 2 to <5 fold increase) | 0 to 10% | 0 to 10% | 300 to 600 µM | 0 to 10%
FC(F)(F)c1ccccc1Cn1nc(-c2ncccn2)cc1-c1ccon1 [Compound I-201] | B (B = 1 to <2 fold increase) | B (B = 1 to <2 fold increase) | 0 to 10% | 0 to 10% |  | 0 to 10%
Fc1cccc(Cn2nc(-c3ncccn3)cc2-c2ccon2)c1 [Compound I-202] | C (C = 2 to <5 fold increase) | E (E = 10 to <20 fold increase) | 20 to 40% | 40 to 60% | < 20 µM | 40 to 60%
Cc1nc(-c2cc(-c3ccon3)n(Cc3ccccc3F)n2)nc(O)c1F [Compound I-203] | B (B = 1 to <2 fold increase) | D (D = 5 to <10 fold increase) | 0 to 10% | 10 to 20% | 60 to 100 µM | 20 to 40%
c1cnc(-c2cc(-c3ccon3)n(Cc3cscn3)n2)nc1 [Compound I-204] | B (B = 1 to <2 fold increase) | C (C = 2 to <5 fold increase) | 0 to 10% | 0 to 10% |  | 0 to 10%
Oc1ccccc1Cn1nc(-c2ncccn2)cc1-c1ccon1 [Compound I-207] | B (B = 1 to <2 fold increase) | C (C = 2 to <5 fold increase) | 0 to 10% | 0 to 10% | 900 to 1200 µM | 0 to 10%
c1cnc(-c2cc(-c3ccon3)n(Cc3cncnc3)n2)nc1 [Compound I-208] | B (B = 1 to <2 fold increase) | D (D = 5 to <10 fold increase) | 0 to 10% | 10 to 20% | 100 to 300 µM | 10 to 20%
CC(C)(O)C(=O)Nc1cnc(-c2cc(-c3ccon3)n(Cc3ccccc3F)n2)nc1N [Compound I-209] | C (C = 2 to <5 fold increase) | E (E = 10 to <20 fold increase) | 10 to 20% | 20 to 40% | 20 to 40 µM | 40 to 60%
